Common to all, as to type: cell-based, human
The test system of assay [1] is Bax. The experiment in a line: Bax level assay. As to conditions: MCF-7 cells; for Bax Fold Change: versus untreated control. Here is the method: (§1) Additionally, the effects of compounds 12 and 17 on the levels of caspase-8, Bax, and Bacl-2 in the MCF-7 cancer cell line and staurosporine as a control were examined. […]
Cells were obtained from American Type Culture Collection, cells were grown in RPMI 1640 containing 10% fetal bovine serum at 37°C, stimulated with the compounds to be tested for caspase8, and lysed with Cell Extraction Buffer. This lysate was diluted in Standard Diluent Buffer over the range of the assay and measured for human active caspase-8 content. […]
4.2.5. Bax activation assay
Bring all reagents, except the human Bax-α Standard, to room temperature for at least 30 minutes prior to opening. The human Bax-α Standard solution should not be left at room temperature for more than 10 minutes. All standards, controls and samples should be run in duplicate. Refer to the Assay Layout Sheet to determine the number of wells to be used and put any remaining wells with the desiccant back into the pouch and seal the ziploc. Store unused wells at 4 °C. Pipet 100 μL of Assay Buffer into the S0 (0 pg/mL standard) wells. Pipet 100 μL of Standards #1 through #6 into the appropriate wells. Pipet 100 μL of the Samples into the appropriate wells. Tap the plate gently to mix the contents. Seal the plate and incubate at room temperature on a plate shaker for 1 hour at ~500 rpm. Empty the contents of the wells and wash by adding 400 μL of wash solution to every well. Repeat the wash 4 more times for a total of 5 washes. After the final wash, empty or aspirate the wells and firmly tap the plate on a lint free paper towel to remove any remaining wash buffer. Pipet 100 μL of yellow Antibody into each well, except the Blank. Seal the plate and incubate at room temperature on a plate shaker for 1 hour at ~500 rpm. Empty the contents of the wells and wash by adding 400 μL of wash solution to every well. Repeat the wash 4 more times for a total of 5 washes. After the final wash, empty or aspirate the wells and firmly tap the plate on a lint free paper towel to remove any remaining wash buffer. Add 100 μL of blue Conjugate to each well, except the Blank. Seal the plate and incubate at room temperature on a plate shaker for 30 minutes at ~500 rpm. Empty the contents of the wells and wash by adding 400 μL of wash solution to every well. Repeat the wash 4 more times for a total of 5 washes. After the final wash, empty or aspirate the wells and firmly tap the plate on a lint free paper towel to remove any remaining wash buffer. Pipet 100 μL of Substrate Solution into each well. Incubate for 30 minutes at room temperature on a plate shaker at ~500 rpm. Pipet 100 μL Stop Solution to each well. Blank the plate reader against the Blank wells, read the optical density at 450 nm. Calculate the average net Optical Density (OD) bound for each standard and sample by subtracting the average Blank OD from the average OD for each standard and sample.
Using linear graph paper, plot the Average Net OD for each standard versus Bax concentration in each standard. Approximate a straight line through the points. The concentration of Bax in the unknowns can be determined by interpolation. […]
Cover with a plate cover and incubate at room temperature, on a microplate shaker at 100 rpm if available, for 2 hours. Remove plate cover and empty the wells.
(§2) Wash microwell strips 3 times as described in step 2. Add 100 μL of diluted Streptavidin-HRP to all wells, including the blank wells. Cover with a plate cover and incubate at room temperature, on a microplate shaker at 100 rpm if available, for 1 hour. Remove plate cover and empty the wells.
(§3) Wash microwell strips 3 times as described in step 2. Proceed to the next step. Pipette 100 μl of mixed TMB Substrate Solution to all wells, including the blanks. Incubate the microwell strips at room temperature (18° to 25°C) for about 15 minutes, if available on a rotator set at 100 rpm.
Avoid direct exposure to intense light. […]

Assay [2] concerns caspase-8. Description: Caspase-8 level assay. The conditions noted are these: MCF-7 cells; for Caspase-8 Fold Change: versus untreated control. Here is the method: as §1
The solution in the wells should change from blue to yellow. Read the absorbance of each well at 450 nm having blanked the plate reader against a chromogen blank composed of 100 μl each of Stabilized Chromogen and Stop Solution. Read the plate within 2 hours after adding the Stop Solution. Use a curve fitting software to generate the standard curve. A four-parameter algorithm provides the best standard curve fit. Read the concentrations for unknown samples and controls from the standard curve. Multiply value(s) obtained for sample(s) by the appropriate dilution factor to correct for the dilution in step 3. Samples producing signals greater than that of the highest standard should be diluted in Standard Diluent Buffer and reanalyzed.
4.2.4. Caspase-8 activation assay
Cells were obtained from American Type Culture Collection, cells were grown in RPMI 1640 containing 10% fetal bovine serum at 37°C, stimulated with the compounds to be tested for caspase8, and lysed with Cell Extraction Buffer. This lysate was diluted in Standard Diluent Buffer over the range of the assay and measured for human active caspase-8 content. (Cells are Plated in a density of 1.2 – 1.8 × 10,000 cells/well in a volume of 100µl complete growth medium + 100 ul of the tested compound per well in a 96-well plate for 24 hours before the enzyme assay for Tubulin.). The absorbance of each microwell was read on a spectro-photometer at 450 nm. A standard curve is prepared from 7human Caspase-8 standard dilutions and human Caspase-8 concentration determined. […]

Assay [3] has as its system Bcl-2. The experiment in a line: Bcl-2 level assay. As to conditions: MCF-7 cells; for Bcl-2 Fold Reduction: versus untreated control. Here is the method: as §1
4.2.6. Bcl-2inhibition assay
Mix all reagents thoroughly without foaming before use. Wash the microwells twice with approximately 300 μL Wash Buffer per well with thorough aspiration of microwell contents between washes. Take caution not to scratch the surface of the microwells. After the last wash, empty the wells and tap microwell strips on absorbent pad or paper towel to remove excess Wash Buffer. Use the microwell strips immediately after washing or place upside down on a wet absorbent paper for not longer than 15 minutes. […] Add 100 μL of Sample […]
Diluent in duplicate to all standard wells and to the blank wells. Prepare standard (1:2 dilution) in duplicate ranging from 32 ng/mL to 0.5 ng/mL. Add 100 μL of Sample Diluent, in duplicate, to the blank wells. Add 80 μL of Sample Diluent, in duplicate, to the sample wells. Add 20 μL of each Sample, in duplicate, to the designated wells. Add 50 μL of diluted biotin-conjugate to all wells, including the blank wells. Cover with a plate cover and incubate at room temperature, on a microplate shaker at 100 rpm if available, for 2 hours. Remove plate cover and empty the wells.
as §2, §3
Avoid direct exposure to intense light. The point, at which the substrate reaction is stopped, is often determined by the ELISA reader. Many ELISA readers record absorbance only up to 2.0
O.D. Therefore, the color development within individual microwells must be watched by the person running the assay and the substrate reaction stopped before positive wells are no longer properly detectable. Stop the enzyme reaction by quickly pipetting 100 μL of Stop Solution into each well, including the blank wells. It is important that the Stop Solution is spread quickly and uniformly throughout the microwells to completely inactivate the enzyme. Results must be read immediately after the Stop Solution is added or within one hour if the microwell strips are stored at 2 - 8°C in the dark. Read absorbance of each microwell on a spectrophotometer using 450 nm as the primary wavelength.
4.3. Statistical analysis
Computerized Prism 5 program was used to statistically analyzed data using one-way ANOVA test followed by Tukey’s as post ANOVA for multiple comparison at P ≤.05. Data were presented

The structures appear in SMILES notation.

With `COc1ccc(C2CC(c3ccc(OCC(=O)Nc4ccc(C5=NNC(c6ccc(OC)c(OC)c6)C5)cc4)cc3)=NN2)cc1` (stereo not drawn) [Compound 12, 2-(4-(5-(4-Methoxyphenyl)-4,5-dihydro-1H-pyrazol-3-yl)phenoxy)-N-(4-(5-(3,4-dimethoxyphenyl)-4,5-dihydro-1H-pyrazol-3-yl)phenyl)acetamide], in assay [1], the “Bax Conc” value is reported as 296 pg/mL and the “Bax Fold Change” value came out at 37. In assay [2], the “Caspase-8 Conc” value was found to be 1.87 ng/mL and the “Caspase-8 Fold Change” value is 21. Moreover, in assay [3], the “Bcl-2 Conc” value stood at 1.05 ng/mL and the “Bcl-2 Fold Reduction” value stood at 5.
As for `COc1ccc(C2CC(c3ccc(NC(=O)COc4ccc(C5=NNC(c6ccc(OC)c(OC)c6)C5)cc4)cc3)=NN2)cc1` (stereo not drawn) [Compound 17, 2-(4-(5-(3,4-Dimethoxyphenyl)-4,5-dihydro-1H-pyrazol-3-yl)phenoxy)-N-(4-(5-(4-methoxyphenyl)-4,5-dihydro-1H-pyrazol-3-yl)phenyl)acetamide], in assay [1], the “Bax Conc” value is listed as 285 pg/mL and the “Bax Fold Change” value came out at 35. Besides, in assay [2], the “Caspase-8 Conc” value is given as 1.77 ng/mL and the “Caspase-8 Fold Change” value is 20. Further, in assay [3], the “Bcl-2 Conc” value is reported as 1.15 ng/mL and the “Bcl-2 Fold Reduction” value was 4.
Turning to `CN[C@@H]1C[C@H]2O[C@@](C)([C@@H]1OC)n1c3ccccc3c3c4c(c5c6ccccc6n2c5c31)C(=O)NC4` [Staurosporine, reference compound], in assay [1], the “Bax Conc” value worked out at 280 pg/mL and the “Bax Fold Change” value came to 35. In addition, in assay [2], the “Caspase-8 Conc” value is on record as 1.80 ng/mL and the “Caspase-8 Fold Change” value amounted to 20. In assay [3], the “Bcl-2 Conc” value is 1.10 ng/mL and the “Bcl-2 Fold Reduction” value worked out at 5.

The values above are taken from paper PMC10218941, “Design, Synthesis, Antiproliferative Actions, and DFT Studies of New Bis–Pyrazoline Derivatives as Dual EGFR/BRAF^V600E Inhibitors” (International Journal of Molecular Sciences, 2023).
